The term IC50 denotes the concentration that gives 50% inhibition.

This is an account of results in patent publication US11453647B2, “Benzimidazole derivatives as adenosine receptor antagonists” (Merck Patent GmbH, priority 2017, dated 2022).

What all share (format): cell-based
The target of one assay is T1, human A1 receptor (Homo sapiens, UniProt P30542).
T1 construct: expressed in transfected cells; host or cells: CHO
T1 sequence (P30542 1-326): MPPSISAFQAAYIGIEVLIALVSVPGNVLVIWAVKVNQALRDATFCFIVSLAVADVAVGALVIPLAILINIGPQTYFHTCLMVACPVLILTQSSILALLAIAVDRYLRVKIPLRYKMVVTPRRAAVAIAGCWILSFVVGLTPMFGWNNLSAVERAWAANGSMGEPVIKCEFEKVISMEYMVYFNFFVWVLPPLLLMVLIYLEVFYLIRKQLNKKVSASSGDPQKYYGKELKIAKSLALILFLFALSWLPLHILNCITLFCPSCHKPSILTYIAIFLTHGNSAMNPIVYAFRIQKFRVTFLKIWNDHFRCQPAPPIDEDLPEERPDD
Put plainly: functional cAMP (HTRF) assay, recombinant CHO cells expressing human A1 receptor, forskolin, agonist CPA. In outline:
(§1)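 Gi-coupled readout: CHO cells expressing human A1 or A3 receptor were treated with forskolin, test compound and agonist (CPA for A1, IB-MECA for A3) for 30 min; cellular cAMP was then measured by HTRF. Data were normalized to inhibitor and DMSO controls and curve-fitted.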

Another assay deals with T2, human A2A receptor (Homo sapiens, UniProt P29274).
T2 construct: expressed in transfected cells; host or cells: HEK293
Put plainly: functional cAMP (HTRF) assay, recombinant HEK293 cells expressing human A2A receptor, agonist NECA.

Another assay has as its target T3, A2B receptors (Homo sapiens, UniProt P29275).
T3 sequence (P29275 1-332): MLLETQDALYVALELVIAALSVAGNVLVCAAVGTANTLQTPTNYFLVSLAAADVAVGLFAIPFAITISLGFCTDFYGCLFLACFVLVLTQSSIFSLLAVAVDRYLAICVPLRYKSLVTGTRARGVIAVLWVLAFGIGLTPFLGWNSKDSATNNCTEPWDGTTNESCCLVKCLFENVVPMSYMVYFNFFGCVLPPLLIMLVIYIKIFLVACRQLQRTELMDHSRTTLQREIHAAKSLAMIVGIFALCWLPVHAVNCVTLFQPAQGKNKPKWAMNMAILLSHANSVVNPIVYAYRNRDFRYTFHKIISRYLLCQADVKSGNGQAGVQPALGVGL
Put plainly: functional cAMP (HTRF) assay, recombinant HEK293 cells expressing human A2B receptor, agonist NECA. More on the design: expressed in transfected cells; host or cells: HEK293. (In TR-FRET formats the signal depends on donor and acceptor labels being close together.)

The next assay addresses T4, human A3 receptor (Homo sapiens, UniProt P0DMS8).
T4 construct: expressed in transfected cells; host or cells: CHO
T4 sequence (P0DMS8 1-318): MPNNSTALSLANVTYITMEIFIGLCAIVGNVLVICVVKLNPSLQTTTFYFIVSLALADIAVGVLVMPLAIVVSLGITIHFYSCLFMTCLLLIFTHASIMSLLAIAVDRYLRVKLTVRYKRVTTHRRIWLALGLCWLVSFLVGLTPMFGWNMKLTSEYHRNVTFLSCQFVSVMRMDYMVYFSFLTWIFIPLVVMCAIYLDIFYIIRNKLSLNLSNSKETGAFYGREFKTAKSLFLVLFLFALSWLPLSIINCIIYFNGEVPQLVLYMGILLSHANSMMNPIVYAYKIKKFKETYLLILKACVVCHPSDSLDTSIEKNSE
Nature of the assay: functional cAMP (HTRF) assay, recombinant CHO cells expressing human A3 receptor, forskolin, agonist IB-MECA. In outline:
as §1

Structures are written as SMILES.

T2 sequence (P29274 whole entry): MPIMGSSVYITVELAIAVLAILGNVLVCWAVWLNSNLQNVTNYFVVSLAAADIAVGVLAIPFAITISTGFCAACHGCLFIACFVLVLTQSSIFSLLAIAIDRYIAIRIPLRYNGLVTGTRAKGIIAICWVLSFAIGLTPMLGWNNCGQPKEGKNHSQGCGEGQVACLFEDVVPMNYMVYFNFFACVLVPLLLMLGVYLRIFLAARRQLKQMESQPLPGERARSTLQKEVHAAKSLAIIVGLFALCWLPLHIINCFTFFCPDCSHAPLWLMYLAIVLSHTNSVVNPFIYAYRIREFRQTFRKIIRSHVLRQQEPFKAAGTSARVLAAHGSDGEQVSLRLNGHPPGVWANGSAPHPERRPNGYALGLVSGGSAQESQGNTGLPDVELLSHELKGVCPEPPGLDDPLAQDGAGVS

As for `COc1cc(F)c(C2=CCOCC2)c2nc(NC(=O)c3cnn(C)c3)[nH]c12` [compound 264, N-[4-(3,6-dihydro-2H-pyran-4-yl)-5-fluoro-7-methoxy-1H-1,3-benzodiazol-2-yl]-1-methyl-1H-pyrazole-4-carboxamide], the IC50 at human A1 receptor was more than 1000 nM; at human A2A receptor, less than 10 nM; on A2B receptors, less than 100 nM; on human A3 receptor, less than 1000 nM.
The like results for `COc1ccc(-c2cccc(F)c2)c2[nH]c(NC(=O)c3c[nH]cn3)nc12` [compound 265, N-[7-(3-fluorophenyl)-4-methoxy-1H-1,3-benzodiazol-2-yl]-1H-imidazole-4-carboxamide] were, in that order, less than 1000 nM, less than 10 nM, less than 100 nM and less than 1000 nM.
For `COc1ccc(-c2cccnc2)c2[nH]c(NC(=O)c3c[nH]cn3)nc12` [compound 268, N-[4-methoxy-7-(pyridin-3-yl)-1H-1,3-benzodiazol-2-yl]-1H-imidazole-4-carboxamide] the same measures were more than 1000 nM, less than 10 nM, less than 100 nM and more than 1000 nM.
As to `COc1ccc(-c2ccccc2)c2nc(NC(=O)c3cn(C)nc3C)[nH]c12` [compound 269, N-(7-methoxy-4-phenyl-1H-1,3-benzodiazol-2-yl)-1,3-dimethyl-1H-pyrazole-4-carboxamide], the half-inhibitory concentration (IC50) was more than 1000 nM on human A1 receptor, less than 100 nM at human A2A receptor, less than 100 nM on A2B receptors and less than 1000 nM on human A3 receptor.
Take `COc1ccc(-c2cccc3[nH]ncc23)c2nc(NC(=O)N3CCC(C)(O)CC3)[nH]c12` [compound 271, 4-hydroxy-N-[4-(1H-indazol-4-yl)-7-methoxy-1H-1,3-benzodiazol-2-yl]-4-methylpiperidine-1-carboxamide]: the half-inhibitory concentration (IC50) at human A1 receptor was more than 1000 nM; at human A2A receptor, less than 100 nM; at A2B receptors, less than 100 nM; on human A3 receptor, more than 1000 nM.
On to `COCCn1cc(C(=O)Nc2nc3c(-c4ccnc5[nH]ccc45)ccc(OC)c3[nH]2)cn1` [compound 278, N-(7-methoxy-4-{1H-pyrrolo[2,3-b]pyridin-4-yl}-1H-1,3-benzodiazol-2-yl)-1-(2-methoxyethyl)-1H-pyrazole-4-carboxamide], for which the IC50 at human A1 receptor is more than 1000 nM; on human A2A receptor, less than 100 nM; at A2B receptors it was less than 100 nM; on human A3 receptor, less than 1000 nM.
Regarding `COCCn1cc(C(=O)Nc2nc3c(-c4cccc5[nH]ncc45)ccc(OC)c3[nH]2)cn1` [compound 279, N-[4-(1H-indazol-4-yl)-7-methoxy-1H-1,3-benzodiazol-2-yl]-1-(2-methoxyethyl)-1H-pyrazole-4-carboxamide], the 50% inhibitory concentration (IC50) on human A1 receptor is less than 1000 nM; on human A2A receptor it was less than 100 nM; on A2B receptors, less than 100 nM; on human A3 receptor, less than 1000 nM.
As for `COCCn1cc(C(=O)Nc2nc3c(-c4ccc5[nH]nc(C)c5c4)ccc(OC)c3[nH]2)cn1` [compound 282, N-[7-methoxy-4-(3-methyl-1H-indazol-5-yl)-1H-1,3-benzodiazol-2-yl]-1-(2-methoxyethyl)-1H-pyrazole-4-carboxamide], the IC50 is less than 1000 nM at human A1 receptor, less than 100 nM on human A2A receptor, less than 100 nM on A2B receptors and less than 1000 nM on human A3 receptor.
As for `COCCn1cc(C(=O)Nc2nc3c(-c4cccc5c4CCN5)ccc(OC)c3[nH]2)cn1` [compound 283, N-[4-(2,3-dihydro-1H-indol-4-yl)-7-methoxy-1H-1,3-benzodiazol-2-yl]-1-(2-methoxyethyl)-1H-pyrazole-4-carboxamide], the IC50 at human A1 receptor is more than 1000 nM; at human A2A receptor, less than 100 nM; at A2B receptors, less than 100 nM; at human A3 receptor, less than 1000 nM.
On to `COc1ccc(-c2ccccc2)c2nc(NC(=O)c3ccc(C(=O)N(C)C)cn3)[nH]c12` [compound 284, N2-(7-methoxy-4-phenyl-1H-1,3-benzodiazol-2-yl)-N5,N5-dimethylpyridine-2,5-dicarboxamide], for which the 50% inhibitory concentration (IC50) is more than 1000 nM on human A1 receptor, less than 100 nM on human A2A receptor, less than 100 nM at A2B receptors and more than 1000 nM on human A3 receptor.
On to `COc1ccc(-c2ccccc2)c2nc(NC(=O)c3ccc(N4C(=O)CCC4=O)cc3)[nH]c12` [compound 285, 4-(2,5-dioxopyrrolidin-1-yl)-N-(7-methoxy-4-phenyl-1H-1,3-benzodiazol-2-yl)benzamide], for which the 50% inhibitory concentration (IC50) at human A1 receptor is less than 1000 nM; on human A2A receptor it was less than 100 nM; on A2B receptors, less than 10 nM; at human A3 receptor, less than 1000 nM.
In the case of `COc1ccc(-c2ccccc2)c2nc(NC(=O)N3CCC(F)(F)CC3)[nH]c12` [compound 287, 4,4-difluoro-N-(7-methoxy-4-phenyl-1H-1,3-benzodiazol-2-yl)piperidine-1-carboxamide], the IC50 on human A1 receptor is less than 1000 nM; at human A2A receptor, less than 100 nM; on A2B receptors, less than 100 nM; at human A3 receptor, more than 1000 nM.
With `COc1ccc(-c2ccccc2)c2[nH]c(NC(=O)c3ccc(C(=O)NCCO)cc3)nc12` [compound 312, N1-(2-hydroxyethyl)-N4-(4-methoxy-7-phenyl-1H-1,3-benzodiazol-2-yl)benzene-1,4-dicarboxamide], the IC50 on human A1 receptor was less than 1000 nM; at human A2A receptor it was less than 10 nM; at A2B receptors, less than 10 nM; on human A3 receptor it was less than 1000 nM.
Consider `COc1ccc(C2=CCOCC2)c2nc(NC(=O)C3CC3)[nH]c12` [compound 314, N-[4-(3,6-dihydro-2H-pyran-4-yl)-7-methoxy-1H-1,3-benzodiazol-2-yl]cyclopropanecarboxamide], for which the 50% inhibitory concentration (IC50) at human A1 receptor is more than 1000 nM; on human A2A receptor it was less than 100 nM; at A2B receptors, less than 1000 nM; on human A3 receptor, less than 1000 nM.
As for `COc1ccc(-c2cccnc2)c2nc(NC(=O)C3CC3)[nH]c12` [compound 315, N-[7-methoxy-4-(pyridin-3-yl)-1H-1,3-benzodiazol-2-yl]cyclopropanecarboxamide], the half-inhibitory concentration (IC50) was more than 1000 nM on human A1 receptor, less than 100 nM on human A2A receptor, less than 100 nM on A2B receptors and less than 1000 nM at human A3 receptor.
`COc1ccc(-c2ccc(F)cc2)c2nc(NC(=O)c3ccc(C(=O)N(C)C)cc3)[nH]c12` [compound 316, N4-[4-(4-fluorophenyl)-7-methoxy-1H-1,3-benzodiazol-2-yl]-N1,N1-dimethylbenzene-1,4-dicarboxamide]: the IC50 at human A1 receptor was less than 1000 nM; on human A2A receptor it was less than 10 nM; on A2B receptors it was less than 10 nM; on human A3 receptor, less than 1000 nM.
Turning to `COc1ccc(-c2ccc(F)cc2)c2nc(NC(=O)c3ccc(N4C(=O)CCC4=O)cc3)[nH]c12` [compound 317, 4-(2,5-dioxopyrrolidin-1-yl)-N-[4-(4-fluorophenyl)-7-methoxy-1H-1,3-benzodiazol-2-yl]benzamide], the 50% inhibitory concentration (IC50) at human A1 receptor was less than 1000 nM; at human A2A receptor, less than 10 nM; at A2B receptors, less than 10 nM; at human A3 receptor it was less than 1000 nM.
On to `COc1ccc(-c2ccc(F)cc2)c2nc(NC(=O)c3cnn(C)c3)[nH]c12` [compound 318, N-[4-(4-fluorophenyl)-7-methoxy-1H-1,3-benzodiazol-2-yl]-1-methyl-1H-pyrazole-4-carboxamide], for which the IC50 at human A1 receptor was less than 100 nM; on human A2A receptor it was less than 10 nM; on A2B receptors, less than 10 nM; at human A3 receptor, less than 100 nM.
